Laboratory results from article PMC6269737, “Effect of Honokiol on Cytochrome P450 and UDP-Glucuronosyltransferase Enzyme Activities in Human Liver Microsomes” (Molecules, 2013).

Columns and labels:
CYP2A6 = biological target: T1, CYP2A6 (Homo sapiens, UniProt P11509); conditions: microsomes
T1 sequence (P11509 1-494): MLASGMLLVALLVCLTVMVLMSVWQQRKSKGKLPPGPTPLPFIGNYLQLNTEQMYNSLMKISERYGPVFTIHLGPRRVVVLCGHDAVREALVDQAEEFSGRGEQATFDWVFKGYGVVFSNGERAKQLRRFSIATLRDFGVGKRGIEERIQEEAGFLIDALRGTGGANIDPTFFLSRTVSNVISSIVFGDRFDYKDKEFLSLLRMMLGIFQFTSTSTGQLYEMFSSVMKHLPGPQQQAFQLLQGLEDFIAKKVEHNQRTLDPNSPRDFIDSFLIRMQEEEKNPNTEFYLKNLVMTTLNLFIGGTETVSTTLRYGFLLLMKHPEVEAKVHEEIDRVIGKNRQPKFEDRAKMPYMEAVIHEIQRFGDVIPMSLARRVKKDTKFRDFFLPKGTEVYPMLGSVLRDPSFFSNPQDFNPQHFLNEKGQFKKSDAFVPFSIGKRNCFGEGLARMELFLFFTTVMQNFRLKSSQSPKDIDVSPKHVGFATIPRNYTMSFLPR
Method: The inhibitory potential (IC50 values) of honokiol on CYP activities was evaluated in pooled human liver microsomes using liquid chromatography-tandem mass spectrometry (LC-MS/MS). […] Honokiol was dissolved in acetonitrile. […] After a 3 min preincubation at 37 °C, the reactions were initiated by addition of an NADP generating system and incubated for 15 min at 37 °C in a shaking water bath. The reaction was then stopped by placement of the tubes on ice and adding 100 μL of ice-cold methanol containing internal standards (^13C2, ^15N-acetaminophen for acetaminophen and N-deethylamodiaquine, and d9-1-hydroxybufuralol for 4-hydroxydiclofenac, 4-hydroxybupropion, 7-hydroxycoumarin, 4-hydroxymephenytoin, 1'-hydroxybufuralol, and 1'-hydroxymidazolam). The incubation mixtures were then centrifuged at 13,000 × g for 4 min. All incubations were performed in triplicate, and average values were used. […]
(§1) The metabolites formed from the seven CYP cocktail substrates were simultaneously determined according to our previously described LC-MS/MS method with minor modification; the concentration of 4-hydroxybupropion for CYP2B6 activity was quantified separately by LC-MS/MS. […] Quantification was performed by selected reaction monitoring (SRM) of [M+H]^+ ions and the related product ions for each metabolite. […]

CYP3A4 = CYP3A4 (Homo sapiens, UniProt P08684); assay: biochemical; conditions: IC50 (μM) of honokiol, Midazolam 1'-hydroxylation
Sequence of CYP3A4 (P08684 2-503): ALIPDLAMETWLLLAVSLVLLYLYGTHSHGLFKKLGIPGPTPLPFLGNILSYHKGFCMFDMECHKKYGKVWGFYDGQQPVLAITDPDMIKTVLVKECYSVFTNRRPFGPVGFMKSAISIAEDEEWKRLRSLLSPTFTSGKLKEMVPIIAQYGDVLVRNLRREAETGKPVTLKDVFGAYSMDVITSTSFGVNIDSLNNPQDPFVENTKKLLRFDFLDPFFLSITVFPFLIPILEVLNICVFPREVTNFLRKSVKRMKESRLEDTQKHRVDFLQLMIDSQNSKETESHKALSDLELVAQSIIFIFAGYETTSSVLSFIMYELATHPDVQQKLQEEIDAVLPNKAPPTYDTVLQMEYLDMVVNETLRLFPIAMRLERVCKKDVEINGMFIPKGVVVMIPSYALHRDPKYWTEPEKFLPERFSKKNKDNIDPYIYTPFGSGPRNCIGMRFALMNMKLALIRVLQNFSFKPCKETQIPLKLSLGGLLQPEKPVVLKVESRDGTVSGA
Method: The inhibitory potential (IC50 values) of honokiol on CYP activities was evaluated in pooled human liver microsomes using liquid chromatography-tandem mass spectrometry (LC-MS/MS). […] Honokiol was dissolved in acetonitrile. […] […] The reaction was then stopped by placement of the tubes on ice and adding 100 μL of ice-cold methanol containing internal standards (^13C2, ^15N-acetaminophen for acetaminophen and N-deethylamodiaquine, and d9-1-hydroxybufuralol for 4-hydroxydiclofenac, 4-hydroxybupropion, 7-hydroxycoumarin, 4-hydroxymephenytoin, 1'-hydroxybufuralol, and 1'-hydroxymidazolam). The incubation mixtures were then centrifuged at 13,000 × g for 4 min. All incubations were performed in triplicate, and average values were used.
The reaction was initiated by the addition of the cocktail containing seven CYP probe substrates and bupropion.
as §1, with “LC-MS/MS. A tandem mass spectrometer (TSQ Quantum Access, Thermo Scientific, San Jose, CA, USA) coupled with a Nanospace SI-2 LC system (Tokyo, Japan) was used.” for “LC-MS/MS.”

UGT1A4 = biological target: T2, UGT1A4 (Homo sapiens, UniProt P22310); assay: UGT1A4-catalyzed trifluoperazine N-glucuronidation inhibition in pooled human liver microsomes; type: in vitro ADME; conditions: 5 μM trifluoperazine, pooled HLM (H161)
T2 sequence (P22310 29-534): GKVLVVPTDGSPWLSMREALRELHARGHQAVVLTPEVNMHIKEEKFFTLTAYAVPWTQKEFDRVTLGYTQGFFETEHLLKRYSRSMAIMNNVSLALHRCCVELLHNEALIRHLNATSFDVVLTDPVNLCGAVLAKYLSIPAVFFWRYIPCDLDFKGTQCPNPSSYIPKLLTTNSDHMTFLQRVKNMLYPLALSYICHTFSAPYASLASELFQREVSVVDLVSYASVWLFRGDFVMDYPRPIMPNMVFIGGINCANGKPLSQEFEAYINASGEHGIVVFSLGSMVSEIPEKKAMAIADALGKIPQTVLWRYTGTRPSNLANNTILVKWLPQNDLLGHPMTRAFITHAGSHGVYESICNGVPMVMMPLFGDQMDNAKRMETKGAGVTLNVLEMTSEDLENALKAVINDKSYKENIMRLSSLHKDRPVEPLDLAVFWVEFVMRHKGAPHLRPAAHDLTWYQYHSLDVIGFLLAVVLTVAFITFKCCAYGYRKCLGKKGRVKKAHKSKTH
Method: The inhibitory potency (IC50 value) of honokiol on UGT1A1-catalyzed 17β-estradiol 3-glucuronidation, UGT1A4-catalyzed trifluoperazine glucuronidation, UGT1A9-catalyzed propofol glucuronidation, and UGT2B7-catalyzed azidothymidine glucuronidation activities was determined in pooled human liver microsomes by LC-MS/MS [48]. […] Reactions were initiated by the addition of UDPGA (final concentration, 5 mM), and incubations were carried out at 37 °C in a shaking water bath for 30 min. Reactions were terminated by adding 100 μL of ice-cold methanol containing an internal standard (500 ng/mL ezetimibe for 17β-estradiol 3-glucuronide and propofol glucuronide; 30 ng/mL meloxicam for trifluoperazine glucuronide and azidothymidine glucuronide). The incubation mixtures were then centrifuged at 13,000 × g for 4 min, followed by dilution of 30 μL of the supernatant with 70 μL of water. An aliquot (5 μL) was injected onto the LC-MS/MS. All incubations were performed in triplicate and the mean values were used. Glucuronides produced from UGT isoform-specific substrates were determined by LC-MS/MS [49].
The apparent kinetic parameters for inhibitory potential (Ki values) were estimated from the fitted curves using Enzyme Kinetics Ver. 1.1 software (Systat Software Inc.).

IC50 (μM) of honokiol, no preincubation (CYP2A6): No inhibition | IC50 (μM) of honokiol, with preincubation (CYP2A6): No inhibition | IC50 (CYP3A4; no preincubation, 2.5 μM midazolam, pooled HLM (H161)): 97.3 µM | IC50 (CYP3A4; with preincubation, 30 min preincubation with NADPH): 45.8 µM | IC50 (UGT1A4): 158 µM
Structure (SMILES): C=CCc1ccc(O)c(-c2ccc(O)c(CC=C)c2)c1 [honokiol, 2-(4-hydroxy-3-prop-2-enyl-phenyl)-4-prop-2-enyl-phenol]
